Laboratory results published in ChEMBL document CHEMBL5608210 (Eur J Med Chem, 2024).
Activity calls are given as the source filed them. The calls are words filed in the database; no cut-off is given here.

Key:
[1] = target: T1, Fatty acid-binding protein, liver (Homo sapiens) (UniProt P07148); assay: Inhibition of human FABP1 at 9 uM incubated for 3 mins by fluorescence based analysis relative to control
T1 sequence (whole entry): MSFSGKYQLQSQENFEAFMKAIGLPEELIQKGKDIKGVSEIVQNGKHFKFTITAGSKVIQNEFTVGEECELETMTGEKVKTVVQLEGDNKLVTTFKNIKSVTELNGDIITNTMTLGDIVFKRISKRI

[2] = target: T2, Fatty acid-binding protein, liver (Homo sapiens, UniProt P07148); assay: Inhibition of human FABP1 incubated for 3 mins by fluorescence based analysis
T2 sequence (P07148 whole entry): T1 sequence (whole entry)

Mus musculus [3] = assay: Anti-NAFLD activity in high-fat diet induced obese male C57BL/6 mouse model assessed as reduction in AUC (0 to 90 mins) at 20 mg/kg, po administered everyday for 4 weeks by oral glucose tolerance test; type: functional, organism-based
[4] = target: Fatty acid-binding protein, adipocyte (Homo sapiens, UniProt P15090); assay: Inhibition of FABP4 (unknown origin) incubated for 3 mins by fluorescence based analysis
Fatty acid-binding protein, adipocyte, sequence (P15090 whole entry): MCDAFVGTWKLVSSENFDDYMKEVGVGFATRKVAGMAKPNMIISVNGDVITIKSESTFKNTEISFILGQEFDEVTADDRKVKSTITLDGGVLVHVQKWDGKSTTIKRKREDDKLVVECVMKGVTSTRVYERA

Mus musculus [5] = assay: Anti-NAFLD activity in high-fat diet induced obese male C57BL/6 mouse model assessed as improvement in oral glucose tolerance at 20 mg/kg, po administered everyday for 4 weeks by oral glucose tolerance test; type: functional, organism-based
[6] = Toxicity in high-fat diet induced obese male C57BL/6 mouse model assessed as effect on ALT level in serum at 20 mg/kg/day, po measured after 4 weeks by automatic biochemical analyzer; type: organism-based; settings: in vivo, 672 h
[7] = Toxicity in high-fat diet induced obese male C57BL/6 mouse model assessed as effect on AST level in serum at 20 mg/kg/day, po measured after 4 weeks by automatic biochemical analyzer; type: organism-based; settings: in vivo, 672 h
[8] = Toxicity in high-fat diet induced obese male C57BL/6 mouse model assessed as effect on ALP level in serum at 20 mg/kg/day, po measured after 4 weeks by automatic biochemical analyzer; type: organism-based; settings: in vivo, 672 h
[9] = Toxicity in high-fat diet induced obese male C57BL/6 mouse model assessed as effect on UA level in serum at 20 mg/kg/day, po measured after 4 weeks by automatic biochemical analyzer; type: organism-based; settings: in vivo, 672 h
[10] = Toxicity in high-fat diet induced obese male C57BL/6 mouse model assessed as effect on TBA level in serum at 20 mg/kg/day, po measured after 4 weeks by automatic biochemical analyzer; type: organism-based; settings: in vivo, 672 h
[11] = Toxicity in high-fat diet induced obese male C57BL/6 mouse model assessed as effect on TBIL level in serum at 20 mg/kg/day, po measured after 4 weeks by automatic biochemical analyzer; type: organism-based; settings: in vivo, 672 h
Mus musculus [12] = assay: Hepatoprotective activity in high-fat diet induced obese male C57BL/6 mouse model assessed reduction in hepatocyte steatosis at 20 mg/kg, po administered everyday for 4 weeks by H and E staining based analysis; type: functional, organism-based
Mus musculus [13] = assay: Hepatoprotective activity in high-fat diet induced obese male C57BL/6 mouse model assessed reduction in inflammatory cell infiltration at 20 mg/kg, po administered everyday for 4 weeks by H and E staining based analysis; type: functional, organism-based
Mus musculus [14] = assay: Hepatoprotective activity in high-fat diet induced obese male C57BL/6 mouse model assessed as reduction in LDL-C level in serum at 20 mg/kg/day, po measured after 4 weeks by automatic biochemical analyzer; type: functional, organism-based
Mus musculus [15] = assay: Hepatoprotective activity in high-fat diet induced obese male C57BL/6 mouse model assessed as reduction in TC level in serum at 20 mg/kg/day, po measured after 4 weeks by automatic biochemical analyzer; type: functional, organism-based
Mus musculus [16] = assay: Hepatoprotective activity in high-fat diet induced obese male C57BL/6 mouse model assessed as reduction in TG level in serum at 20 mg/kg/day, po measured after 4 weeks by automatic biochemical analyzer; type: functional, organism-based
Mus musculus [17] = assay: Hepatoprotective activity in high-fat diet induced obese male C57BL/6 mouse model assessed as decrease in IL-6 level in liver at 20 mg/kg/day, po measured after 4 weeks by ELISA method; type: functional, organism-based
Mus musculus [18] = assay: Hepatoprotective activity in high-fat diet induced obese male C57BL/6 mouse model assessed as decrease in IL-1 beta level in liver at 20 mg/kg/day, po measured after 4 weeks by ELISA method; type: functional, organism-based
Mus musculus [19] = assay: Hepatoprotective activity in high-fat diet induced obese male C57BL/6 mouse model assessed as decrease in MCP-1 level in liver at 20 mg/kg/day, po measured after 4 weeks by ELISA method; type: functional, organism-based
Mus musculus [20] = assay: Hepatoprotective activity in high-fat diet induced obese male C57BL/6 mouse model assessed as decrease in TNF-alpha level in liver at 20 mg/kg/day, po measured after 4 weeks by ELISA method; type: functional, organism-based

| Compound | inhibition [1] [%] | also measured |
| --- | --- | --- |
| O=C(O)CCC(NC(=O)N1CCN(S(=O)(=O)c2cccc3cccnc23)CC1)C(=O)O (stereo not given) | 31.6 |  |
| CCc1c(-c2ccccc2)c(-c2ccccc2)nn1-c1ccccc1-c1cccc(OCC(=O)O)c1 |  | IC50 [2]: 2.71 µM |
| O=C(O)c1ccc(-c2ccccc2S(=O)(=O)N2CCN(S(=O)(=O)c3cccc4cccnc34)CC2)cc1 | 68.3 | IC50 [2]: 2.11 µM |
| O=C(c1ccc(NS(=O)(=O)c2cccc3cccnc23)cc1)N1CCN(C(=O)C2(C(=O)O)CC2)CC1 | 29.9 |  |
| O=C(O)CC(=O)N1CCN(S(=O)(=O)c2ccc(-c3ccccc3)cc2)CC1 | 13.4 |  |
| O=C(O)C1CCCN(S(=O)(=O)c2cccc3cccnc23)C1 (stereo not given) | 13.7 |  |
| CSCCC(NS(=O)(=O)c1cccc2cccnc12)C(=O)O (stereo not given) | 20.9 |  |
| O=S(=O)(c1ccccc1-c1cccc(O)c1)N1CCN(S(=O)(=O)c2cccc3cccnc23)CC1 | 78.1 | Activity (Mus musculus [3]): Active; IC50 [2]: 1.18 µM; IC50 [4]: > 80 µM; Activity (Mus musculus [5]): Active; Activity [6]: Non-Toxic; Activity [7]: Non-Toxic; Activity [8]: Non-Toxic; Activity [9]: Non-Toxic; Activity [10]: Non-Toxic; Activity [11]: Non-Toxic; Activity (Mus musculus [12]): Active; Activity (Mus musculus [13]): Active; Activity (Mus musculus [14]): Active; Activity (Mus musculus [15]): Active; Activity (Mus musculus [16]): Active; Activity (Mus musculus [17]): Active; Activity (Mus musculus [18]): Active; Activity (Mus musculus [19]): Active; Activity (Mus musculus [20]): Active |
| O=S(=O)(c1ccc(-c2ccccc2)cc1)N1CCNCC1 | 0.18 |  |
| O=C(O)C1(c2cccc(-c3ccc(OCc4c(-c5c(Cl)cccc5Cl)noc4C4CC4)cc3)c2)CC1 |  | IC50 [4]: 6.2 µM |
| CC1CN(S(=O)(=O)c2cccc3cccnc23)CCN1C(=O)CC(=O)O (stereo not given) | 20.3 |  |
| O=C(O)CCCCCCCOc1cccc(NS(=O)(=O)c2ccc(-c3ccccc3)cc2)c1 | 73.5 | IC50 [2]: 3.24 µM |
| O=S(=O)(c1ccccc1-c1ccc(F)cc1)N1CCN(S(=O)(=O)c2cccc3cccnc23)CC1 | 52.7 | IC50 [2]: 5.66 µM |
| N#Cc1ccc(-c2ccccc2S(=O)(=O)N2CCN(S(=O)(=O)c3cccc4cccnc34)CC2)cc1 | 61.2 | IC50 [2]: 2.66 µM |
| O=C(C1CCCN(S(=O)(=O)c2cccc3cccnc23)C1)N1CCNCC1 (stereo not given) | 11.5 |  |
| O=C(O)CC(NC(=O)C1CCCN(S(=O)(=O)c2cccc3cccnc23)C1)C(=O)O (stereo not given) | 12.1 |  |
| O=C(O)C1(C(=O)N2CCN(S(=O)(=O)c3cccc4cccnc34)CC2)CC1 | 30.5 |  |
| O=C(O)C1(C(=O)N2CCN(S(=O)(=O)c3ccc(-c4ccccc4)cc3)CC2)CC1 | 21.1 |  |
| O=C(O)CC(=O)N1CCN(S(=O)(=O)c2cccc3cccnc23)CC1 | 26.2 |  |
| Cc1cc(F)ccc1-c1ccccc1S(=O)(=O)N1CCN(S(=O)(=O)c2cccc3cccnc23)CC1 | 63.8 | IC50 [2]: 6.11 µM |
| O=C(O)CNC(=O)CNS(=O)(=O)c1cccc2cccnc12 | 10.1 |  |
| O=C(O)CCC(NC(=O)C1CCCN(S(=O)(=O)c2cccc3cccnc23)C1)C(=O)O (stereo not given) | 10.3 |  |

Second part, led by results:

| inhibition [1] [%] | Compound | also measured |
| --- | --- | --- |
| 8.28 | O=C(O)c1cccc(NS(=O)(=O)c2cccc3cccnc23)c1 |  |
| 15.3 | O=C(O)CCNC(=O)c1ccc(NS(=O)(=O)c2cccc3cccnc23)cc1 |  |
| 72.5 | O=C(O)CCCCCCCOc1ccc(NS(=O)(=O)c2cccc3cccnc23)cc1 | IC50 [2]: 2.44 µM |
| 4.26 | O=C(O)CNS(=O)(=O)c1cccc2cccnc12 |  |
| 12.2 | O=C(O)CC[C@H](NC(=O)c1ccc(NS(=O)(=O)c2cccc3cccnc23)cc1)C(=O)O |  |
| 23.8 | O=C(O)CC(=O)N1CCN(C(=O)c2ccc(NS(=O)(=O)c3cccc4cccnc34)cc2)CC1 |  |
| 16.1 | O=C(O)CNC(=O)c1ccc(NS(=O)(=O)c2cccc3cccnc23)cc1 |  |
| 1.28 | O=C(O)c1ccc(NS(=O)(=O)c2cccc3cccnc23)cc1 |  |
| 69.3 | O=C(O)CCCCCCCOc1cccc(NS(=O)(=O)c2cccc3cccnc23)c1 | IC50 [2]: 3.02 µM |
| 13.1 | O=C(O)C[C@H](NC(=O)c1ccc(NS(=O)(=O)c2cccc3cccnc23)cc1)C(=O)O |  |
| 11.9 | O=C(O)CNC(=O)CNC(=O)c1ccc(NS(=O)(=O)c2cccc3cccnc23)cc1 |  |
| 3.47 | O=C(O)CCNS(=O)(=O)c1cccc2cccnc12 |  |
